Data from patent US20120316106A1, “SYNERGISTIC ANTIBIOTIC COMBINATIONS AND DERIVATIVES” (YEDA RESEARCH AND DEVELOPMENT CO. LTD., priority 2009, published 2012).
“Also recorded” adds a separate entry of the source. Like-named read-outs stand apart in the source and are kept apart here.

Tests used:
[1] = system: E. coli cell-free transcription-translation system; test: Inhibition of E. coli cell-free transcription-translation (firefly luciferase readout); type: biochemical
Description: (§1) To address this question, it was first verified that LM binds to the ribosome and inhibits protein synthesis. […] RNA probing was then utilized to follow the binding of LC and LM to the ribosome. For the consistency of structural data, RNA probing experiments were carried out using D. radiodurans large ribosomal subunits. Binding of LC and LM was analyzed using chemical modifying reagents 1-cyclohexyl-3-(2-morpholinoethyl) carbodiimide metho-p-toluene sulfonate (CMCT) and dimethyl sulfate (DMS).
(§2) Antibiotic binding and inhibition of cell-free translation were determined as described in (Xiong, L. et al., 2005, Antimicrob Agents Chemother 49, 281-288). Inhibition of the peptidyl transferase reaction by LC was performed and analyzed as described in. The data were analyzed using Prism 4 (GraphPad Software). RNA probing was carried out as described in (Moazed, D. and Noller, H. F., 1987, Biochemie 69, 879-884) using D50S.
The E. coli cell-free transcription-translation system for circular DNA (Promega) was pre-incubated with varying concentrations of antibiotics for 5 min at 20° C. The reactions (10 μl final volume) were initiated by adding 0.64 μg of pBestLuc plasmid DNA (Promega). Reactions were incubated for 40 min at 20° C. and stopped by chilling on ice. The activity of firefly luciferase synthesized in the reaction was determined in 96-well plates using Bright-Glo Luciferase Assay System (Promega) as recommended by the manufacturer.

[2] = system: Gram-positive bacteria; conditions: background statement; cited from earlier work
[3] = background statement; cited from earlier work
[4] = system: D. radiodurans 50S ribosomal subunits (23S rRNA); test: RNA probing (chemical footprinting) of 23S rRNA with CMCT and DMS; type: binding; conditions: LC 50 μM, LM 500 μM, D50S 200 nM; for Protection of 23S rRNA residues from CMCT modification: ERY 50 μM
Description: as §1
Similar to ERY and other 14 member-ring macrolides, binding of LM results in protection of U2609 from CMCT modification and of A2058 and A2059 from DMS chemical modification performed on the 23S rRNA of D. Radiodurans in complex with the combinations of the antibiotics (FIGS. 6C,D). The idiosyncratic protections of 23S rRNA residues were exploited against CMCT modification, afforded by LC and LM, to interrogate their simultaneous interaction with the ribosome. […] However, the accessibility of these residues to CMCT is not affected by LM or ERY (FIG. 6). […] In contrast, and in agreement with the binding experiments, the LC-mediated protection of U2506 and U2585 is partially relieved upon addition of ERY (FIG. 6D) and ERY-dependent protection of U2609 is partly reversed when LC is present. Thus, while LC and ERY compete for the binding to the ribosome, LC and LM can bind simultaneously to their respective targets in the PTC and NPET.
as §2
RNA probing was carried out essentially as described (16, 46) using D. radiodurans 50S ribosomal subunits at 200 nM concentration and antibiotics at the following concentrations: LC—50 μM, LM—500 μM, ERY—50 μM. Prior to addition of the modifying reagents, ribosomal subunits were pre-incubated with the drug 10 min at 37° C. and then 10 min at 20° C.

[5] = target: large ribosomal subunits of D. radiodurans; test: Inhibition of peptidyl transferase (puromycin) reaction, isolated large subunits; type: biochemical; conditions: FIG. 5B, read-out: IC50, inhibition of puromycin reaction (peptide bond formation)
Description: as §2
(§3) In the reaction catalyzed by large ribosomal subunits, D. radiodurans 50S subunits (200 nM final concentration) were combined in 50 μl of the reaction buffer (20 mM Tris-HCl, pH 8.0, 20 mM MgCl2, 400 mM KCl) with 28 nM [^3H]-fMet-tRNA, 1 mM puromycism at varying concentrations of LC. Reactions were initiated by addition of 25 μl methanol and incubated on ice for 30 min. Reactions were stopped and analyzed as described (Maguire et al., 2005, Mol Cell 20, 427-435). In the ribosome-based puromycin assay, 70S ribosomes of S. aureus (at a final concentration of 200 nM) were preincubated for 15 min at 37° C. in 50 μl of polyamine buffer (20 mM HEPES-KOH, pH 7.6, 6 mM Mg-acetate, 150 mM NH4Cl, 4 mM β-mercaptoethanol, 2 mM spermidine, 0.05 mM spermine) with 600 nM mRNA AAGGAGAUAAACAAUGGGU and 28 nM [^3H]-fMet-tRNA. After addition of varying concentrations of LC, puromycin was added to the final concentration of 0.5 mM and reactions were incubated for 15 m in at 37° C. […]

[6] = system: eukaryotic cell-free translation; conditions: background statement; cited from earlier work
[7] = system: Staphylococcus aureus 70S ribosomes; test: Inhibition of peptidyl transferase (puromycin) reaction, 70S ribosomes; type: biochemical; conditions: S. aureus 70S ribosomes, FIG. 5B; read-out: IC50, inhibition of puromycin reaction (peptide bond formation)
Description: as §2, §3

[8] = target: D. radiodurans 50S subunits; test: Competition with 14C-ERY for binding to 50S subunits; conditions: 0.1 μM 50S, 0.1 μM 14C-erythromycin, FIG. 5C; read-out: IC50, displacement of 14C-ERY from D50S
Source text: S. rochei secretes two antibiotics, a 17-member ring macrocyclic LC and a 14-member ring macrolide, lankamycin (LM). LM is structurally similar to ERY (FIG. 1) and thus it was assumed that it is likely to bind to the ribosome at the site and orientation similar to ERY, namely at the NPET in immediate proximity to the PTC, the LC binding site. […] These observations raised the question whether, similarly to ERY, LM would also compete with LC for ribosome binding.
as §2
D. radiodurans 50S subunits (0.1 μM) were preincubated 15 min at 37° C. with 0.1 μM of ^14C-erthromycin (48.8 mCi/mmol, Perkin Elmer) in 100 μl binding buffer (20 mM Tris-HCl, pH 7.5, 10 mM MgCl2, 250 mM NH4Cl, 6 mM β-mercaptoethanol). […] The ribosome-antibiotic complexes were purified by gel filtration in BioGel P30 spin columns as described (Xiong, L. et al. ibid) and the amount of ribosome-bound radioactivity was measured by scintillation counting.

[9] = Table 2, read-out: [IC50] for antibiotic inhibition of cell free translation
[10] = FIG. 5A / 5D, read-out: IC50, inhibition of bacterial (E. coli) cell-free transcription-translation

## CC1=C\[C@@H](O)CC(=O)Cc2nc(co2)C(=O)N2CCC=C2C(=O)O[C@H](C(C)C)[C@H](C)/C=C/C(=O)NC\C=C\1 [Virginiamycin M]
[1]; [9]
  IC50: 800 nM

## CO[C@H]1C[C@@H](C)O[C@@H](O[C@@H]2[C@@H](C)[C@H](O[C@H]3C[C@@](C)(OC)[C@H](OC(C)=O)[C@H](C)O3)[C@@H](C)C(=O)O[C@H]([C@@H](C)[C@H](C)O)[C@H](C)[C@H](OC(C)=O)[C@@H](C)C(=O)[C@@](C)(O)C[C@@H]2C)[C@@H]1O [LM, lankamycin]
[2]
  Antibiotic activity against Gram-positive bacteria: weak antibiotic activity
[3]
  Toxicity in animal models: low toxicity
[4]
  Protection of 23S rRNA residues from CMCT modification: strongly protect U2609
  Protection of 23S rRNA residues from DMS modification: protects A2059 and A2058 from DMS modification
[1]; [10]
  IC50: 275000 ± 36000 nM

## CC[C@H]1OC(=O)[C@H](C)[C@@H](O[C@H]2C[C@@](C)(OC)[C@@H](O)[C@H](C)O2)[C@H](C)[C@@H](O[C@@H]2O[C@H](C)C[C@H](N(C)C)[C@H]2O)[C@](C)(O)C[C@@H](C)C(=O)[C@H](C)[C@@H](O)[C@]1(C)O [ERY, erythromycin, reference compound]
[4]
  Protection of 23S rRNA residues from CMCT modification: strongly protect U2609
[1]; [9]
  IC50: 200 nM

## CC(=O)C(=O)N[C@@H]1/C=C(C)/C=C/[C@@H](O)C/C=C(C)/C=C/[C@@H](O)C[C@H]2OC(=O)[C@]1(C)C(=O)[C@@H]2C [LC, Lankacidin C]
[2]
  Antibiotic activity against Gram-positive bacteria: inhibits growth of Gram-positive bacteria
[5]
  IC50: 10000 ± 6000 nM
[6]
  Effect on eukaryotic cell-free translation: little effect
[7]
  IC50: 320 ± 20 nM
[8]
  IC50: 355 ± 26 nM
[4]
  Protection of 23S rRNA residues from CMCT modification: shields U2506 and U2585 from alterations; also recorded: no effect on this nucleotide
  Protection of 23S rRNA residues from DMS modification: A2059 became partially protected from DMS whereas modification of A2058 was increased
[1]; [10]
  IC50: 1500 ± 100 nM

## CC[C@H]1NC(=O)[C@@H](NC(=O)c2ncccc2O)[C@@H](C)OC(=O)[C@H](c2ccccc2)NC(=O)[C@@H]2CC(=O)CCN2C(=O)[C@H](Cc2ccccc2)N(C)C(=O)[C@@H]2CCCN2C1=O [Virginiamycin S]
[1]; [9]
  IC50: 2500 nM
